Entries after “also recorded” stand apart in the source; their conditions may differ. Blank lines part the entries; values can stand above or below the molecule they belong to.
Columns and labels:
plasmid DNA = test: Rotor fluorescence with plasmid DNA; assay type: binding; conditions: 100 uM rotor, 5 ug plasmid DNA
Description: 100 uM of Sybr green, Pyrene or CCVJ rotors were each added to either 5 ug plasmid DNA, 5 ug DNA with 500 mM NaOH, or PBS buffer only. Resulting fluorescence for each reaction mixture were then compared across the respective filters (Sybr 497/520, Pyrene 376/530, Julolidine 433/505).

[1] = target: p53 protein binding to DNA (Homo sapiens, UniProt P04637); test: Fluorescence change of DNA-bound rotor on addition of p53 protein
Description: For the third set with DNA and p53, 1×PBS buffer and p53 6× binding buffer were first added to the wells. Subsequently, rotor was added and DNA was added. The combined solutions were mixed in each well and allowed to incubate in the dark at room temperature for half an hour before p53 was added. The combined solutions were then allowed to incubate in the dark at room temperature for another half an hour before data on fluorescence intensity was gathered.
6× binding buffer consists: 150 mM sodium phosphate buffer, 600 uM KCl, 24 mM DTT.
(§1) Measurements were taken using Greiner 384 black flat-clear-bottom for 18 uL mixtures, Corning 96 flat-black half-area for 80 uL and 100 uL mixtures, and Tecan Infinite M-1000 Spectrophotometer.

[2] = test system: p53 binding sequence duplex DNA; test: Rotor fluorescence with p53 binding sequence duplex DNA (intercalation); conditions: FIG. 7
Description: For the first set with DNA only, 1×PBS buffer and p53 6× binding buffer were first added to the wells. Subsequently, rotor was added. Lastly, DNA was added. The combined solutions were mixed in each well and allowed to incubate in the dark at room temperature for, half an hour before data on fluorescence intensity was gathered.
as §1

streptavidin = streptavidin (Streptomyces avidinii, UniProt P22629); test: Fluorescence of rotor-biotin conjugate on addition of streptavidin; assay type: binding
Description: FIG. 4a depicts the emission spectra of a CCVJ molecular rotor bound to biotin with Streptavidin. […] 40 μM of rotor-biotin conjugate was incubated for 15 min with 50 μg of streptavidin. Fluorescence emission spectrum was measured using an excitation wavelength (λex) of 433 nm.

MDM2 = MDM2 (Homo sapiens, UniProt Q00987); conditions: unconjugated peptide, Table 9; ITC; read-out: Previously reported Kd value; cited from earlier work
Chain of MDM2 (Q00987 whole entry): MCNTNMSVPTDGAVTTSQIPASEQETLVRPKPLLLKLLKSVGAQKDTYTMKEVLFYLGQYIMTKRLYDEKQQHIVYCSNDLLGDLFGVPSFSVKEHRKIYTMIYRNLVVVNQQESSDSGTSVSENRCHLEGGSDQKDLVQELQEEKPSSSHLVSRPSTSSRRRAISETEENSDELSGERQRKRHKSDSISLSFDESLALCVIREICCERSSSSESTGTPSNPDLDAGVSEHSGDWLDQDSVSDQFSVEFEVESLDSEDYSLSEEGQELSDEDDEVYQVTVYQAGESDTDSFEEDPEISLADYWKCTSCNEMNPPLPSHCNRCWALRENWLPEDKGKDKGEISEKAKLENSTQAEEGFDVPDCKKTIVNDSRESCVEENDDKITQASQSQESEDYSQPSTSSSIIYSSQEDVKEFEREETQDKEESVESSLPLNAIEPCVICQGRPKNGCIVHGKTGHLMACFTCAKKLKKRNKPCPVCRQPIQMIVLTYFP

Chain of p53 protein binding to DNA (P04637 whole entry): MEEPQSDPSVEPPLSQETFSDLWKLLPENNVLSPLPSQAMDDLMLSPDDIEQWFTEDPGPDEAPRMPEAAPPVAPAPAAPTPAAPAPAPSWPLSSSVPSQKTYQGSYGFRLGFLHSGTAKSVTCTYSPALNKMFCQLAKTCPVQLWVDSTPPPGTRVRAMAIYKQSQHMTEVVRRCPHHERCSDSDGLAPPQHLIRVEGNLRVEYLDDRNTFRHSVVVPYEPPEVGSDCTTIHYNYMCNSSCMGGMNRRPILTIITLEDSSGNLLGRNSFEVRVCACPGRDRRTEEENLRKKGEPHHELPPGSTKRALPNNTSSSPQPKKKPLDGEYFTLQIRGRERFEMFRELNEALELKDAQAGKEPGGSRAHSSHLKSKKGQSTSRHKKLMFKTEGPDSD

Molecule: N#C/C(=C\c1cc2c3c(c1)CCCN3CCC2)C(=O)O [CCVJ, 9-(2-carboxy-2-cyanovinyl) julolidine]
Fluorescence signal with plasmid DNA (plasmid DNA): weak signal

Rotor:DNA ratio at saturation of fluorescence intensity [2]: 0.5 × rotor
Molecule: CN(C)c1ccc2cc3ccc(N(C)C)c(/C=C(\C#N)C(=O)O)c3nc2c1 [acridine-based rotor]
Fluorescence change when p53 is added to DNA-bound rotor [1]: decreased fluorescence signal; also recorded: fluorescence intensity dropped

Molecule: N#C/C(=C\c1cc2c3c(c1)CCCN3CCC2)C(=O)OCCNC(=O)CCCCC1SCC2NC(=O)NC21 (centres unmarked) [biotin-rotor probe]
Fluorescence increase on addition of streptavidin (streptavidin; 40 μM conjugate, 50 μg streptavidin, 15 min): 2 fold

Fluorescence change when p53 is added to DNA-bound rotor [1]: turn-off effect
Rotor:DNA ratio at saturation of fluorescence intensity [2]: 15 × rotor
Molecule: C[n+]1ccc(/C=C/c2ccc3c(c2)c2cc(/C=C/c4cc[n+](C)cc4)ccc2n3-c2ccccc2)cc1 [carbazole-based (2-arm) rotor, 4,4′-((1E,1′E)-(9-phenyl-9H-carbazole-3,6-diyl)bis(ethene-2,1-diyl))bis(1-methylpyridin-1-ium)]

Rotor:DNA ratio at saturation of fluorescence intensity [2]: 15 × rotor
Molecule: C[n+]1ccc(/C=C/c2ccc(-n3c4ccc(/C=C/c5cc[n+](C)cc5)cc4c4cc(/C=C/c5cc[n+](C)cc5)ccc43)cc2)cc1 [carbazole-based (3-arm) rotor, 4,4′-((1E,1′E)-(9-(4-((E)-2-(1-methylpyridin-1-ium-4-yl)vinyl)phenyl)-9H-carbazole-3,6-diyl)bis(ethene-2,1-diyl))bis(1-methylpyridin-1-ium)]

Molecule: N#C/C(=C\c1ccc2ccc3cccc4ccc1c2c34)C(=O)O [pyrene-based molecular rotor]
Fluorescence change on binding to streptavidin (streptavidin; FIG. 4b): fluorescence increase

Rotor:DNA ratio at saturation of fluorescence intensity [2]: 15 × rotor
Molecule: C[n+]1c(/C=C2/C=CN(CCCN)c3ccccc32)sc2ccccc21 [thiazole-based rotor]

Molecule: MPRFMDYWEGLNK [JP2]
Kd (MDM2): 240 ± 53.8 nM

Molecule: MPRFMDYWEGLSK [JP1]
Kd (MDM2): 18.8 ± 5.03 nM
